According to patent US8450331B2, “Thiophenyl-substituted 2-imino-3-methyl pyrrolo pyrimidinone compounds as BACE-1 inhibitors, compositions, and their use” (Merck Sharp & Dohme Corp., priority 2008, dated 2013):
Where two headings read alike, the source gives them in different places.

Columns and labels:
CYP2D6 = molecular target: T1, CYP2D6 (Homo sapiens, UniProt P10635); test: CYP inhibition assay, human liver microsomes, CYP2D6; assay type: in vitro ADME
T1 construct: human liver microsomes (0.4 mg/ml); from tissue; host or cells: human liver microsomes
Procedure: (§1) The test article was dissolved in methanol at a concentration of 5 mM. Dilutions of the stock solution were also prepared in methanol. The substrate concentration was kept near the Km value for each CYP reaction. The substrates were 100 μM phenacetin (O-deethylase reaction) for CYP1A2, 16 μM dextromethorphan (O-demethylase reaction) for CYP2D6, 100 μM testosterone (6β-hydroxylase reaction) and 5 μM midazolam (1′-hydroxylase reaction) for CYP3A4, 200 μM tolbutamide (4-hydroxylase reaction) for CYP2C9, 125 μM S-(+)-mephenyloin (4-hydroxylase reaction) for CYP2C19 and 5 μM paclitaxel (6[…]-hydroxylase reaction) for CYP2C8. The reactions were terminated by the addition of 35% perchloric acid to a final concentration of 4.5% (vol:vol). The concentrations of the metabolites formed from each substrate after incubation were determined by LC-MS/MS using a standard curve.
(§2) To evaluate metabolism/mechanism-based inhibition, the test article, at the stated concentrations (0 to 50 μM), was pre-incubated with human liver microsomes for 30 min at 37° C. in the presence of NADPH and in the absence of the substrates. After the pre-incubation step, the CYP substrates were added at the previously stated concentrations and the reactions were allowed to proceed as indicated in the previous paragraph.

hERG = molecular target: T2, hERG (Homo sapiens, UniProt Q12809); test: hERG rubidium efflux in hERG-CHO cells; assay type: cell-based; settings: CHO cells that express hERG (hERG-CHO); for inhibition at 30 min, 1.5 uG/mL: pH 7.4, 1.5 uG/mL, read-out: HERG Rb efflux % Inhib 1.5 uG/mL; for inhibition at 30 min, 5 uG/mL: pH 7.4, 5 uG/mL, read-out: HERG Rb efflux % Inhib 5 uG/mL
T2 construct: expressed in transfected cells; host or cells: CHO cells (hERG-CHO)
Procedure: The base solution for the rubidium efflux studies was 144 mM NaCl, 20 mM HEPES-NaOH (pH 7.4), 2 mM CaCl2, 1 mM MgCl2, and 11 mM glucose. To prepare the rubidium loading buffer 5.4 mM RbCl was added. The wash buffer was supplemented with 5.4 mM KCl. The depolarization buffer was prepared by adding 40 mM KCl to the wash buffer. Drugs were added as 4× stocks containing 10% DMSO with a resulting final DMSO concentration of 2.5%.
hERG-CHO cells were plated into 96-well flat-bottom dishes and returned to the incubator for 24 hours. On the day of study, culture medium was removed and replaced by a HEPES-buffered saline solution containing 5.4 mM RbCl. Cells were returned to the tissue culture incubator for 3 hours to permit rubidium loading. […] Plates were then washed 3× with HEPES buffered saline containing 5.4 mM KCl and zero rubidium. After the 3rd wash cells were depolarized by the addition of 200 μl HEPES buffered saline containing 45.4 mM KCl. Cells were incubated in the depolarization solution for 5 minutes to permit efflux of rubidium. Supernatants were then collected and analyzed for rubidium content using automated flame atomic absorbance spectroscopy (ICR-8000, Aurora Biosciences). Percent inhibition was quantified based on a signal window defined by no block (vehicle) and full block with 10 μM dofetilide. All pipetting steps for the rubidium efflux screen were implemented using a pipetting robot capable of making simultaneous additions and removals from 96 wells (Quadra-96).

CYP2C9 = molecular target: T3, CYP2C9 (Homo sapiens, UniProt P11712); test: CYP inhibition assay, human liver microsomes, CYP2C9; assay type: in vitro ADME
T3 construct: human liver microsomes (0.4 mg/ml); from tissue; host or cells: human liver microsomes
Procedure: as §1, §2

CYP3A4 = molecular target: T4, CYP3A4 (Homo sapiens, UniProt P08684); test: CYP inhibition assay, human liver microsomes, CYP3A4; assay type: in vitro ADME
T4 construct: human liver microsomes (0.4 mg/ml); from tissue; host or cells: human liver microsomes

[1] = molecular target: T5, soluble human BACE1 catalytic domain (Homo sapiens, UniProt P56817); test: BACE1 HTRF FRET assay; assay type: biochemical; settings: calculated from IC50 by Cheng-Prusoff; QSY7-APPswe-Eu substrate, pH 5.0
T5 construct: purified human BACE1 catalytic domain

human liver Cathepsin D = molecular target: T6, human liver Cathepsin D (Homo sapiens, UniProt P07339); test: Human Cathepsin D FRET assay; assay type: biochemical; settings: selectivity with respect to Cathepsin D versus BACE1
T6 construct: Purified (>95%) human liver Cathepsin D; purchased Athens Research & Technology 16-12-030104; host or cells: human liver (tissue-derived)

BACE1 = molecular target: T7, BACE1 (Homo sapiens, UniProt P56817); test: BACE inhibitor whole cell IC50 determination using HEK293-APPswe/lon cells (Aβ40); assay type: cell-based; settings: 4 hours, Aβ40 in media, read-out: BACE1 A[…]40 IC50
T7 construct: endogenous in cells; host or cells: HEK293 stably transfected with human APP cDNA (Swedish and London mutations)

[2] = 30 min pre-incubation with NADPH, read-out: CYP 2D6 IC50 pre
[3] = co-incubation, dextromethorphan substrate, read-out: CYP 2D6 IC50 co
[4] = 30 min pre-incubation with NADPH, read-out: CYP 2C9 IC50 pre
[5] = co-incubation, tolbutamide substrate, read-out: CYP 2C9 IC50 co
[6] = 30 min pre-incubation with NADPH, read-out: CYP 3A4 IC50 pre
[7] = co-incubation, read-out: CYP 3A4 IC50 co

T1 sequence (P10635 whole entry): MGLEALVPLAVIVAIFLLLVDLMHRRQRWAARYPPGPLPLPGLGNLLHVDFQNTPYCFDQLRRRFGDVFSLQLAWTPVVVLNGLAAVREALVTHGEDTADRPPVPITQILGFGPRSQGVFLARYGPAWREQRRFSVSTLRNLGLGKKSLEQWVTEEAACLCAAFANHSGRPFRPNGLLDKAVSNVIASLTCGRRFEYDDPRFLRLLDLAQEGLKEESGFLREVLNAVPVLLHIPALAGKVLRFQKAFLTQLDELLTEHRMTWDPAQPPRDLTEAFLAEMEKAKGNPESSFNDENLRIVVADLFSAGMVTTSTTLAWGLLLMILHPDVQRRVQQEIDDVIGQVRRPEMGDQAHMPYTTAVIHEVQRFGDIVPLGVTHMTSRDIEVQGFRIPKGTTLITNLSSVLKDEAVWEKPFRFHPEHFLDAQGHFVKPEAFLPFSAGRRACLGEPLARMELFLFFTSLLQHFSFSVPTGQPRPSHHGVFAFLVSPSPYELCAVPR
T6 sequence (P07339 169-412 limits assumed): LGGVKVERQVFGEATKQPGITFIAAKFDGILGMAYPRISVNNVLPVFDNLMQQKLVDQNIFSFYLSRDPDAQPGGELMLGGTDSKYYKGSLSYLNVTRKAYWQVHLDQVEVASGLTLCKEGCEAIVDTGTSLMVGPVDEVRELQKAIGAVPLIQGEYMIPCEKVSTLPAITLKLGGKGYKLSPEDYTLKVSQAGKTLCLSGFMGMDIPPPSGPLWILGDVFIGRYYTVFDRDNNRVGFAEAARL
T6 sequence (P07339 65-161 limits assumed): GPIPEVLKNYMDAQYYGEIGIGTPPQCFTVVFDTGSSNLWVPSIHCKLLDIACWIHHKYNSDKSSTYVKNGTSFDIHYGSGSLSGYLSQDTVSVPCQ
T5 sequence (P56817 75-416 limits assumed): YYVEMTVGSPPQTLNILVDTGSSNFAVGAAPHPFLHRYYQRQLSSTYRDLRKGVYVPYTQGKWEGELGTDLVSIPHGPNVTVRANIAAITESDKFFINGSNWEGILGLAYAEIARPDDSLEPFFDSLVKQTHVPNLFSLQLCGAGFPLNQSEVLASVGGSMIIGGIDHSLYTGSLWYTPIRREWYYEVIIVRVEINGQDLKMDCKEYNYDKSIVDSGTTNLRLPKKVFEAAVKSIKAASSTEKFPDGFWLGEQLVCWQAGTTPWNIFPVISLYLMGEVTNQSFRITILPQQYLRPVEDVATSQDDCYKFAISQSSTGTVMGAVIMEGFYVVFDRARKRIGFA
T4 sequence (P08684 whole entry): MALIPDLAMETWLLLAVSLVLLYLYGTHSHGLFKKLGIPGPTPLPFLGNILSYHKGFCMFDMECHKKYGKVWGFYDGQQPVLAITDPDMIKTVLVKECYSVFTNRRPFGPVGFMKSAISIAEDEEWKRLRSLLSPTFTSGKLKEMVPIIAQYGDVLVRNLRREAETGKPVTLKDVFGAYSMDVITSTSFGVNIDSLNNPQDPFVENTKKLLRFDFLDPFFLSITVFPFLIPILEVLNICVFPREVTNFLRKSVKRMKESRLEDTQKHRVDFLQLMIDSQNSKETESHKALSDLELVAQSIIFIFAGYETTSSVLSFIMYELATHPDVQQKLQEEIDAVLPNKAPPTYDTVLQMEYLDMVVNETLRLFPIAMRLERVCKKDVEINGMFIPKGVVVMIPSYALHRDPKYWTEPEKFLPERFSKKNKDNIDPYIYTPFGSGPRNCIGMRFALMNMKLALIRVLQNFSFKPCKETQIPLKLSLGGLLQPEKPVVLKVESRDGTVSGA
T7 sequence (P56817 46-501): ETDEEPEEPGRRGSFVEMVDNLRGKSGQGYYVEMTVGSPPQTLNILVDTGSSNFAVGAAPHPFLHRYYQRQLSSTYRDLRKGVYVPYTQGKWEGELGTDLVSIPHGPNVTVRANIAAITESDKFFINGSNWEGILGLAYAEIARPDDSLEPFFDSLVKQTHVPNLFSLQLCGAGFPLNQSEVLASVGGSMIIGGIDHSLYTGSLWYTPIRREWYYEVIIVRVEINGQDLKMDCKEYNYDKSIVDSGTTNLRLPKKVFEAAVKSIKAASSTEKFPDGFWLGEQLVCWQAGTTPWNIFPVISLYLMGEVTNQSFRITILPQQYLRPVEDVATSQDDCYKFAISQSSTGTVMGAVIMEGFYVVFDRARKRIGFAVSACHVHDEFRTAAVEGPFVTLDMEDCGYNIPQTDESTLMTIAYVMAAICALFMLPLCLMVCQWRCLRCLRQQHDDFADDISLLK
T3 sequence (P11712 whole entry): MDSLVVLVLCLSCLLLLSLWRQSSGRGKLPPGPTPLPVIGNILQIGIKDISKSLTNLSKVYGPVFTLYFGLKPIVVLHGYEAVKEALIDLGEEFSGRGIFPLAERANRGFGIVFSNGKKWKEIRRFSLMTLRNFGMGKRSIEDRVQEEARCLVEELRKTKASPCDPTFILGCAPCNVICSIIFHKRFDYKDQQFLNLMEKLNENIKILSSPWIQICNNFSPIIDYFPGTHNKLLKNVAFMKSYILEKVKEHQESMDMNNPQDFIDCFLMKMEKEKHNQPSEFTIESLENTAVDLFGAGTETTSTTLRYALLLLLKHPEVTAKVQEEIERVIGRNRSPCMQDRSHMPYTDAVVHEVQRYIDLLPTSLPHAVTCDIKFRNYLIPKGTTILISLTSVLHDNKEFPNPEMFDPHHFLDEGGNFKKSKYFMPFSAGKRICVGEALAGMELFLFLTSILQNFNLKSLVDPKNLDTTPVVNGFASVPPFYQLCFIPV
T2 sequence (Q12809 whole entry): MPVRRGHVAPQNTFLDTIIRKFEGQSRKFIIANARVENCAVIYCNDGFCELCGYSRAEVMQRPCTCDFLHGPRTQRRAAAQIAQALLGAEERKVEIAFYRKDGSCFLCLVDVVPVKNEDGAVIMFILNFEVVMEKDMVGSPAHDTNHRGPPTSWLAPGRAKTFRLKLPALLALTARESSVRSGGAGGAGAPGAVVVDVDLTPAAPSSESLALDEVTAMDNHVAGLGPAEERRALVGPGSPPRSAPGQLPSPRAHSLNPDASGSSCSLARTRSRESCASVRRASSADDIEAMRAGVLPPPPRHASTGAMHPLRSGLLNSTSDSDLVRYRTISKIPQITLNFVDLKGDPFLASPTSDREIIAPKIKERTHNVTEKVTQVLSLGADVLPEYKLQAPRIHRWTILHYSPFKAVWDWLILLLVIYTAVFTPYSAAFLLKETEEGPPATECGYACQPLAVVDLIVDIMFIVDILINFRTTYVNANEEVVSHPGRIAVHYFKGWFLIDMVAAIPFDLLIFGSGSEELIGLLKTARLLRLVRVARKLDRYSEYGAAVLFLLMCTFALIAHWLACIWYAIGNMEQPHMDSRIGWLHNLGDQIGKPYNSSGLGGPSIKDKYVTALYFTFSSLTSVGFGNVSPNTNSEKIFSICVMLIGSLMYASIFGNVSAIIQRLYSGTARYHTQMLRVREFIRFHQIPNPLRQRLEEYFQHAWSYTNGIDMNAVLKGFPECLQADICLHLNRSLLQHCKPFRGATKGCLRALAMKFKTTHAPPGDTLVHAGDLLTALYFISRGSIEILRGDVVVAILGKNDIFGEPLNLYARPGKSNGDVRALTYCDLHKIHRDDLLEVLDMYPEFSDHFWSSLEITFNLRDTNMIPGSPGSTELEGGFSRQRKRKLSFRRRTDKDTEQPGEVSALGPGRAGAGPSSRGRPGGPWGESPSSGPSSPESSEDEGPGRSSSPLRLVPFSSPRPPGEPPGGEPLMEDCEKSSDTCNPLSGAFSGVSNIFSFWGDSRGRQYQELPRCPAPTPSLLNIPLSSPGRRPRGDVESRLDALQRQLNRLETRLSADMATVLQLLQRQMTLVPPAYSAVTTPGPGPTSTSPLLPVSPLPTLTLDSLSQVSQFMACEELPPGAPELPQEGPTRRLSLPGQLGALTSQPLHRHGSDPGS

| SMILES | IC50 (CYP2D6; [2]) [µM] | IC50 (CYP2D6; [3]) [µM] | inhibition at 30 min, 1.5 uG/mL (hERG) [%] | inhibition at 30 min, 5 uG/mL (hERG) [%] | IC50 (CYP2C9; [4]) [µM] | IC50 (CYP2C9; [5]) [µM] | IC50 (CYP3A4; [6]) [µM] | IC50 (CYP3A4; [7]) [µM] | Ki [1] [µM] | CathD Selectivity (human liver Cathepsin D) | IC50 (BACE1) [µM] |
| --- | --- | --- | --- | --- | --- | --- | --- | --- | --- | --- | --- |
| CCc1nc(N2C[C@H]3C(=O)N(C)C(=N)N[C@@]3(c3ccc(Cl)s3)C2)nc(OC)c1F [Example 4] | 19 | 22 | 17 | 49 | 5.5 | 7.9 | ~30 | > 30 |  |  |  |
| Cc1nc(N2C[C@H]3C(=O)N(C)C(=N)N[C@@]3(c3ccc(Cl)s3)C2)nc(C2CC2)c1F [Example 6] | 21 | > 30 |  |  | 19 | 19 | 12 | 16 | 0.049 |  |  |
| Cc1nc(N2C[C@H]3C(=O)N(C)C(=N)N[C@@]3(c3ccc(Cl)s3)C2)nc(C)c1F [Example 14] | > 30 | > 30 | 14 | 6 | > 30 | > 30 | > 30 | > 30 | 0.047 |  |  |
| Cc1nc(N2C[C@H]3C(=O)N(C)C(=N)N[C@@]3(c3cc(C#N)cs3)C2)nc(C2CC2)c1F [Example 8] | > 30 | > 30 |  |  | > 30 | > 30 | > 30 | > 30 | 0.031 | 82 | 0.21 |
| CCCc1nc(N2C[C@H]3C(=O)N(C)C(=N)N[C@@]3(c3ccc(Cl)s3)C2)nc(C)c1F [Example 15] |  |  | 35 | 40 |  |  |  |  | 0.0088 | 20 | 0.147 |
| COc1nc(N2C[C@H]3C(=O)N(C)C(=N)N[C@@]3(c3ccc(Cl)s3)C2)nc(C)c1F [Example 2] | > 30 | > 30 | 4 | 22 | 22.8 | 20.3 |  |  |  |  |  |
| CCc1nc(N2C[C@H]3C(=O)N(C)C(=N)N[C@@]3(c3ccc(Cl)s3)C2)nc(C)c1F [Example 7] | > 30 | > 30 |  |  | > 30 | > 30 | > 30 | > 30 | 0.024 |  | 0.285 |
| Cc1nc(N2C[C@H]3C(=O)N(C)C(=N)N[C@@]3(c3ccc(C#N)s3)C2)nc(C)c1F [Example 19] | > 30 | > 30 | -5 | 3 | > 30 | > 30 | ~30 | > 30 | 0.052 | 47 | 0.141 |
| CCCc1nc(N2C[C@H]3C(=O)N(C)C(=N)N[C@@]3(c3ccc(C#N)s3)C2)nc(C)c1F [Example 16] |  |  | 44 | 28 |  |  |  |  | 0.019 | 16 | 0.135 |
| COc1nc(N2C[C@H]3C(=O)N(C)C(=N)N[C@@]3(c3ccc(Cl)s3)C2)nc(C2CC2)c1F [Example 11] |  |  | 26 | 72 |  |  |  |  | 0.151 |  | 1.32 |
| Cc1nc(N2C[C@H]3C(=O)N(C)C(=N)N[C@@]3(c3ccc(C#N)s3)C2)nc(C2CC2)c1F [Example 9] |  |  |  |  |  |  |  |  | 0.049 |  | 0.315 |
| CCCc1nc(N2C[C@H]3C(=O)N(C)C(=N)N[C@@]3(c3ccc(Cl)s3)C2)nc(OC)c1F [Example 10] | 8.2 | 6.1 | 23 | 65 | 11.3 | 7.9 | 11.9 | > 30 |  |  |  |
| CCc1nc(N2C[C@H]3C(=O)N(C)C(=N)N[C@@]3(c3ccc(Cl)s3)C2)nc(C2CC2)c1Cl [Example 13] |  |  | 2 | 46 |  |  |  |  | 0.157 |  |  |
| Cc1nc(N2C[C@H]3C(=O)N(C)C(=N)N[C@@]3(c3ccc(Cl)s3)C2)nc(C2CC2)c1Cl [Example 20] |  |  | -1 | 34 |  |  |  |  | 0.0096 | 62 | 0.215 |
| [H]/N=C1\N[C@@]2(c3ccc(C#N)s3)CN(c3nc(C)c(F)c(OC)n3)C[C@H]2C(=O)N1C [Example 1] | > 30 | > 30 | 1 | 10 | > 30 | 23.4 |  |  |  |  |  |
| CCOc1nc(N2C[C@H]3C(=O)N(C)C(=N)N[C@@]3(c3ccc(Cl)s3)C2)nc(CC)c1F [Example 5] | 12.9 | 13.5 | 10 | 22 | 4.2 | 7.3 | 23 | > 30 | 0.11 |  |  |
| COc1nc(N2C[C@H]3C(=O)N(C)C(=N)N[C@@]3(c3ccc(Cl)s3)C2)nc(C2CC2)c1Cl [Example 12] |  |  | -7 | 34 |  |  |  |  | 0.03 |  | 0.561 |
